Reference: US12319640B2, “Cyclic diones as herbicidal compounds” (SYNGENTA CROP PROTECTION AG, priority 2019, dated 2025)

Key:
Experiment in all cases: Glasshouse herbicide test, pre- and post-emergence
Format in all cases: in vivo
Lolium perenne (LOLPE) = settings: 250 g/h, evaluated after 13 days, five-point scale; for percentage damage caused to the plant, LOLPE POST: post-emergence; for percentage damage caused to the plant, LOLPE PRE: pre-emergence
How it was run: (§1)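 Spraying at 250 g/h took place either pre-emergence (one day after sowing) or post-emergence (after eight days' cultivation). Percentage damage was evaluated 13 days afterwards and binned into five classes, 1=0-19% up to 5=80-100%.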

[1] = tested on: Alopecurus myosuroides (ALOMY); settings: 250 g/h, evaluated after 13 days, five-point scale; for percentage damage caused to the plant, ALOMY POST: post-emergence; for percentage damage caused to the plant, ALOMY PRE: pre-emergence
How it was run: as §1

Avena fatua (AVEFA) = settings: 250 g/h, evaluated after 13 days, five-point scale; for percentage damage caused to the plant, AVEFA POST: post-emergence; for percentage damage caused to the plant, AVEFA PRE: pre-emergence
How it was run: as §1

[2] = tested on: Echinochloa crus-galli (ECHCG); settings: 250 g/h, evaluated after 13 days, five-point scale; for percentage damage caused to the plant, ECHCG POST: post-emergence; for percentage damage caused to the plant, ECHCG PRE: pre-emergence
How it was run: as §1

Setaria faberi (SETFA) = settings: 250 g/h, evaluated after 13 days, five-point scale; for percentage damage caused to the plant, SETFA POST: post-emergence; for percentage damage caused to the plant, SETFA PRE: pre-emergence
How it was run: as §1

Structure (SMILES)	percentage damage caused to the plant, LOLPE POST (Lolium perenne (LOLPE))	percentage damage caused to the plant, LOLPE PRE (Lolium perenne (LOLPE))	percentage damage caused to the plant, ALOMY POST [1]	percentage damage caused to the plant, ALOMY PRE [1]	percentage damage caused to the plant, AVEFA POST (Avena fatua (AVEFA))	percentage damage caused to the plant, AVEFA PRE (Avena fatua (AVEFA))	percentage damage caused to the plant, ECHCG POST [2]	percentage damage caused to the plant, ECHCG PRE [2]	percentage damage caused to the plant, SETFA POST (Setaria faberi (SETFA))	percentage damage caused to the plant, SETFA PRE (Setaria faberi (SETFA))
CC#Cc1cc(C)c(C2C(=O)CC3(CCC(NC(=O)c4ccnc(F)c4)CC3)CC2=O)c(C)c1 (centres unmarked) [Compound 2.018]	5 (5=80-100%)	5 (5=80-100%)	5 (5=80-100%)	4 (4=60-79%)	5 (5=80-100%)	5 (5=80-100%)	5 (5=80-100%)	5 (5=80-100%)	5 (5=80-100%)	5 (5=80-100%)
CC#Cc1cc(C)c(C2C(=O)CC3(CCC(NC(=O)c4ccccc4)CC3)CC2=O)c(C)c1 (centres unmarked) [Compound 2.019]	5 (5=80-100%)	5 (5=80-100%)	5 (5=80-100%)	5 (5=80-100%)	5 (5=80-100%)	5 (5=80-100%)	5 (5=80-100%)	5 (5=80-100%)	5 (5=80-100%)	5 (5=80-100%)
CC#Cc1cc(C)c(C2C(=O)CC3(CCC(NC(=O)COC)CC3)CC2=O)c(C)c1 (centres unmarked) [Compound 2.020]	5 (5=80-100%)	5 (5=80-100%)	5 (5=80-100%)	5 (5=80-100%)	5 (5=80-100%)	5 (5=80-100%)	5 (5=80-100%)	5 (5=80-100%)	5 (5=80-100%)	5 (5=80-100%)
CC#Cc1cc(C)c(C2C(=O)CC3(CCC(NC(=O)NC(C)(C)C)CC3)CC2=O)c(C)c1 (centres unmarked) [Compound 2.021]	5 (5=80-100%)	5 (5=80-100%)	5 (5=80-100%)	5 (5=80-100%)	5 (5=80-100%)	4 (4=60-79%)	5 (5=80-100%)	5 (5=80-100%)	5 (5=80-100%)	5 (5=80-100%)
CC#Cc1cc(C)c(C2C(=O)CC3(CCC(NC(=O)NC(=O)C(C)(C)C)CC3)CC2=O)c(C)c1 (centres unmarked) [Compound 2.022]	5 (5=80-100%)	5 (5=80-100%)	5 (5=80-100%)	5 (5=80-100%)	5 (5=80-100%)	3 (3=40-59%)	5 (5=80-100%)	5 (5=80-100%)	5 (5=80-100%)	5 (5=80-100%)
CC#Cc1cc(C)c(C2C(=O)CC3(CCC(NC(=O)NC(=O)c4ccccn4)CC3)CC2=O)c(C)c1 (centres unmarked) [Compound 2.023]	5 (5=80-100%)	5 (5=80-100%)	5 (5=80-100%)	5 (5=80-100%)	5 (5=80-100%)	4 (4=60-79%)	5 (5=80-100%)	5 (5=80-100%)	5 (5=80-100%)	5 (5=80-100%)
CC#Cc1cc(C)c(C2C(=O)CC3(CCC(NC(C)=O)C3)CC2=O)c(C)c1 (centres unmarked) [Compound 2.024]	5 (5=80-100%)	5 (5=80-100%)	5 (5=80-100%)	5 (5=80-100%)	5 (5=80-100%)	5 (5=80-100%)	5 (5=80-100%)	5 (5=80-100%)	5 (5=80-100%)	5 (5=80-100%)
CC#Cc1cc(C)c(C2C(=O)CC3(CC2=O)CC(NC(C)=O)C3)c(C)c1 (centres unmarked) [Compound 2.025]	5 (5=80-100%)	5 (5=80-100%)	5 (5=80-100%)	5 (5=80-100%)	5 (5=80-100%)	5 (5=80-100%)	5 (5=80-100%)	5 (5=80-100%)	5 (5=80-100%)	5 (5=80-100%)
CC(=O)NC1CCC2(CC1)CC(=O)C(c1c(C)cc(-c3ccc(F)cc3)cc1C)C(=O)C2 (centres unmarked) [Compound 2.027]	5 (5=80-100%)	4 (4=60-79%)	5 (5=80-100%)	3 (3=40-59%)	5 (5=80-100%)	4 (4=60-79%)	5 (5=80-100%)	2 (2=20-39%)	5 (5=80-100%)	5 (5=80-100%)
CC(=O)NC1CCC2(CC1)CC(=O)C(c1c(C)cc(-c3ncc(F)cn3)cc1C)C(=O)C2 (centres unmarked) [Compound 2.028]	5 (5=80-100%)	5 (5=80-100%)	5 (5=80-100%)	5 (5=80-100%)	5 (5=80-100%)	4 (4=60-79%)	5 (5=80-100%)	5 (5=80-100%)	5 (5=80-100%)	5 (5=80-100%)
Cc1cc(-c2ccc(C#N)cn2)cc(C)c1C1C(=O)CC2(CCC(NC(=O)C3CC3)CC2)CC1=O (centres unmarked) [Compound 2.029]	5 (5=80-100%)	5 (5=80-100%)	5 (5=80-100%)	2 (2=20-39%)	5 (5=80-100%)	4 (4=60-79%)	5 (5=80-100%)	5 (5=80-100%)	5 (5=80-100%)	5 (5=80-100%)
CC(=O)NC1CCC2(CC1)CC(=O)C(c1c(C)cc(-c3ccc(C#N)cn3)cc1C)C(=O)C2 (centres unmarked) [Compound 2.030]	5 (5=80-100%)	5 (5=80-100%)	5 (5=80-100%)	4 (4=60-79%)	5 (5=80-100%)	5 (5=80-100%)	5 (5=80-100%)	5 (5=80-100%)	5 (5=80-100%)	5 (5=80-100%)
CC(=O)NC1CCC2(CC1)CC(=O)C(c1c(C)cc(-c3ncc(F)cc3F)cc1C)C(=O)C2 (centres unmarked) [Compound 2.031]	5 (5=80-100%)	5 (5=80-100%)	5 (5=80-100%)	5 (5=80-100%)	5 (5=80-100%)	5 (5=80-100%)	5 (5=80-100%)	5 (5=80-100%)	5 (5=80-100%)	5 (5=80-100%)
CC(=O)NC1CCC2(CC1)CC(=O)C(c1c(C)cc(-c3ccc(F)cn3)cc1C)C(=O)C2 (centres unmarked) [Compound 2.032]	5 (5=80-100%)	5 (5=80-100%)	5 (5=80-100%)	5 (5=80-100%)	5 (5=80-100%)	4 (4=60-79%)	5 (5=80-100%)	5 (5=80-100%)	5 (5=80-100%)	5 (5=80-100%)
